For one molecule, Activity results are on record in ChEMBL document CHEMBL1147916, “2-(2-(2-Ethoxybenzoylamino)-4-chlorophenoxy)-N-(2-ethoxybenzoyl)benzamine inhibits EAT cell induced angiogenesis by down regulation of VEGF secretion” (2007).

Activity calls are given as the source filed them. The rule behind the calls is not given here.

The nature of assay [1]: Antiangiogenic activity against swiss albino mouse EAT cells assessed as decrease in body weight at 100 mg/kg after 6 days. It counts as functional. The arrangement: scale not given: the % may be the effect or the level left.
In assay [2] the test system is EAT. Put plainly: Antiangiogenic activity against EAT cells bearing Swiss Albino mouse assessed as ascites volume at 100 mg/kg after 12 days. The class given is functional, organism-based. More on the design: dose 100 mg/kg.
Assay [3] relates to EAT. Put plainly: Antiangiogenic activity against EAT cells bearing Swiss Albino mouse assessed as cell number at 100 mg/kg after 12 days by trypan blue dye exclusion method. The class given is functional, organism-based. The arrangement: dose 100 mg/kg.
Assay [4] concerns EAT. Put plainly: Inhibition of VEGF secretion in EAT cells bearing Swiss Albino mouse at 100 mg/kg after 6 days by VEGF ELISA. It counts as functional, organism-based. The arrangement: dose 100 mg/kg.
In assay [5] the test system is EAT. Put plainly: Antiangiogenic activity against EAT cells bearing Swiss Albino mouse assessed as microvasculature at 100 mg/kg after 6 days by peritoneal angiogenesis assay. It counts as functional, organism-based. More on the design: dose 100 mg/kg.
Assay [6] has as its system EAT. Kind of assay: Antiangiogenic activity against EAT cells bearing Swiss Albino mouse by CAM assay. It counts as functional.

As to `CCOc1ccccc1C(=O)Nc1ccccc1Oc1ccc(Cl)cc1NC(=O)c1ccccc1OCC`, the Activity in assay [1] is 65%. Besides, the outcome in assay [2], in assay [3], in assay [4], in assay [5] and in assay [6] was Active.
